In PubChem BioAssay (NCI):
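A five-concentration, 48-hour dose response in 96-well plates underlies each endpoint, interpolated linearly between surrounding concentrations. Abbreviation: GI50, concentration required for 50% inhibition of growth. The concentration for full growth arrest is given as TGI.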

Columns and labels:
Assay in all cases: NCI anticancer screen, dose series, 48 h
786-0 renal = test system: 786-0 renal
CCRF-CEM leukemia = test system: CCRF-CEM leukemia
HT29 colon = test system: HT29 colon
OVCAR-3 ovarian = test system: OVCAR-3 ovarian
SK-MEL-5 melanoma = test system: SK-MEL-5 melanoma
T-47D breast = test system: T-47D breast
UACC-257 melanoma = test system: UACC-257 melanoma
SF-295 CNS = test system: SF-295 CNS
MCF7 breast = test system: MCF7 breast
NCI/ADR-RES ovarian = test system: NCI/ADR-RES ovarian

SMILES: O=C(N=Nc1ccccc1Cl)NNc1ccccc1Cl
- TGI (786-0 renal): 34.4 µM
- TGI (CCRF-CEM leukemia): 53.6 µM
- TGI (HT29 colon): > 100 µM
- TGI (OVCAR-3 ovarian): 95.3 µM
- TGI (SK-MEL-5 melanoma): > 100 µM
- TGI (T-47D breast): > 100 µM
- TGI (UACC-257 melanoma): > 100 µM

SMILES: CC1(C)O[C@@H](C[C@]2(C#N)C[C@H](CCl)OC(C)(C)O2)C[C@@H](C#N)O1
- TGI (786-0 renal): > 100 µM
- TGI (CCRF-CEM leukemia): > 100 µM
- TGI (HT29 colon): > 100 µM
- TGI (OVCAR-3 ovarian): > 100 µM
- TGI (SF-295 CNS): > 100 µM
- TGI (SK-MEL-5 melanoma): > 100 µM
- TGI (UACC-257 melanoma): > 100 µM

SMILES: CCOc1cc2c(cc1O)C(O)C[C@@H]1[C@@H]2CC[C@]2(C)[C@@H](O)CC[C@@H]12 (some centres not stated)
- TGI (786-0 renal): > 83 µM
- TGI (CCRF-CEM leukemia): > 100 µM
- TGI (HT29 colon): 25.1 µM
- TGI (MCF7 breast): > 100 µM
- TGI (NCI/ADR-RES ovarian): 4.04 µM
- TGI (OVCAR-3 ovarian): > 100 µM
- TGI (UACC-257 melanoma): > 100 µM

SMILES: CCN(CC)C(=O)Cn1c2c(c3ccccc31)CCCC2
- TGI (786-0 renal): > 100 µM
- TGI (CCRF-CEM leukemia): > 100 µM
- TGI (HT29 colon): > 100 µM
- TGI (MCF7 breast): > 100 µM
- TGI (NCI/ADR-RES ovarian): > 100 µM
- TGI (SF-295 CNS): > 100 µM
- TGI (SK-MEL-5 melanoma): > 100 µM
- TGI (UACC-257 melanoma): > 100 µM

SMILES: CCN(CC)CC1CCCCN1CC(=O)N1CC(C)C(=O)Nc2ccccc21 (configuration not stated)
- TGI (786-0 renal): > 100 µM
- TGI (CCRF-CEM leukemia): > 100 µM
- TGI (HT29 colon): > 100 µM
- TGI (OVCAR-3 ovarian): > 100 µM
- TGI (SF-295 CNS): > 100 µM
- TGI (SK-MEL-5 melanoma): > 100 µM
- TGI (UACC-257 melanoma): > 100 µM

SMILES: Cc1c2cccc-2ccc2c3ccccc3n(C(=O)c3ccc(Cl)cc3)c12
- TGI (786-0 renal): > 100 µM
- TGI (CCRF-CEM leukemia): > 100 µM
- TGI (HT29 colon): > 100 µM
- TGI (MCF7 breast): > 100 µM
- TGI (NCI/ADR-RES ovarian): > 100 µM
- TGI (OVCAR-3 ovarian): > 100 µM
- TGI (SF-295 CNS): > 100 µM
- TGI (SK-MEL-5 melanoma): > 100 µM
- TGI (UACC-257 melanoma): > 100 µM

SMILES: CCCCN(C)/N=N/c1nc[nH]c1C(N)=O
- TGI (CCRF-CEM leukemia): > 100 µM
- TGI (HT29 colon): > 100 µM
- TGI (MCF7 breast): > 100 µM
- TGI (NCI/ADR-RES ovarian): > 100 µM
- TGI (OVCAR-3 ovarian): > 100 µM
- TGI (SF-295 CNS): > 100 µM
- TGI (SK-MEL-5 melanoma): > 100 µM
- TGI (UACC-257 melanoma): > 100 µM

SMILES: [N-]=[N+]=NCC(O)Cn1cnc2c(NC(=O)c3ccccc3)ncnc21 (configuration not stated)
- TGI (786-0 renal): > 100 µM
- TGI (CCRF-CEM leukemia): > 100 µM
- TGI (HT29 colon): > 100 µM
- TGI (SF-295 CNS): > 100 µM
- TGI (SK-MEL-5 melanoma): > 100 µM
- TGI (UACC-257 melanoma): > 100 µM

SMILES: Cn1c(=O)sc2cc(C(=S)N3CCCCC3)ccc21
- TGI (786-0 renal): > 100 µM
- TGI (CCRF-CEM leukemia): 43 µM
- TGI (HT29 colon): > 100 µM
- TGI (MCF7 breast): > 100 µM
- TGI (NCI/ADR-RES ovarian): > 100 µM
- TGI (OVCAR-3 ovarian): > 100 µM
- TGI (SF-295 CNS): > 100 µM
- TGI (SK-MEL-5 melanoma): > 100 µM
- TGI (UACC-257 melanoma): > 100 µM

SMILES: CC1(C)C=C(/C=N/Nc2ccccc2)C(C#N)=C(O)C1(C#N)C#N
- TGI (786-0 renal): > 100 µM
- TGI (CCRF-CEM leukemia): > 100 µM
- TGI (HT29 colon): > 100 µM
- TGI (MCF7 breast): > 100 µM
- TGI (NCI/ADR-RES ovarian): > 100 µM
- TGI (OVCAR-3 ovarian): > 100 µM
- TGI (SF-295 CNS): > 100 µM
- TGI (SK-MEL-5 melanoma): > 100 µM
- TGI (UACC-257 melanoma): > 100 µM

SMILES: CSc1cnc2ccccc2c1Sc1c[nH]c2ccccc2c1=O
- TGI (786-0 renal): 34.8 µM
- TGI (CCRF-CEM leukemia): > 87.3 µM
- TGI (HT29 colon): 15.1 µM
- TGI (OVCAR-3 ovarian): 22 µM
- TGI (SF-295 CNS): > 46.7 µM
- TGI (SK-MEL-5 melanoma): 26.6 µM
- TGI (UACC-257 melanoma): 48 µM

SMILES: Cc1c2ccncc2c(C)c2c1[nH]c1ccc(OCCN(C)C)cc12
- TGI (CCRF-CEM leukemia): 1.3 µM
- TGI (HT29 colon): 1.24 µM
- TGI (MCF7 breast): 0.785 µM
- TGI (NCI/ADR-RES ovarian): 0.348 µM
- TGI (OVCAR-3 ovarian): 1.07 µM
- TGI (SF-295 CNS): 0.505 µM
- TGI (SK-MEL-5 melanoma): 3.4 µM
- TGI (UACC-257 melanoma): 2.07 µM

SMILES: O=C(O)c1ccccc1C1c2ccccc2Oc2ccccc21
- TGI (786-0 renal): > 100 µM
- TGI (CCRF-CEM leukemia): > 100 µM
- TGI (HT29 colon): > 100 µM
- TGI (NCI/ADR-RES ovarian): > 100 µM
- TGI (OVCAR-3 ovarian): 90.1 µM
- TGI (SF-295 CNS): > 100 µM
- TGI (SK-MEL-5 melanoma): > 100 µM
- TGI (T-47D breast): > 100 µM
- TGI (UACC-257 melanoma): > 100 µM

SMILES: COc1cc(N(CCC#N)CCC#N)ccc1/C=N\NC(=O)c1ccc(C)cc1
- TGI (786-0 renal): > 100 µM
- TGI (CCRF-CEM leukemia): > 100 µM
- TGI (HT29 colon): > 100 µM
- TGI (NCI/ADR-RES ovarian): > 100 µM
- TGI (OVCAR-3 ovarian): > 100 µM
- TGI (SF-295 CNS): > 100 µM
- TGI (SK-MEL-5 melanoma): > 100 µM
- TGI (T-47D breast): > 100 µM
- TGI (UACC-257 melanoma): > 100 µM

SMILES: COc1ccc(C(=O)/C=C/c2cc(-c3cc(OC)c(OC)c(OC)c3)n[nH]2)cc1
- GI50 (CCRF-CEM leukemia): 1420 nM
- TGI (CCRF-CEM leukemia): 5.85 µM
- GI50 (MCF7 breast): 1150 nM
- TGI (MCF7 breast): 2.96 µM
- GI50 (NCI/ADR-RES ovarian): 2760 nM
- TGI (NCI/ADR-RES ovarian): 9.85 µM
- GI50 (OVCAR-3 ovarian): 1740 nM
- TGI (OVCAR-3 ovarian): 3.56 µM
- GI50 (SK-MEL-5 melanoma): 1720 nM
- TGI (SK-MEL-5 melanoma): 3.24 µM
- GI50 (T-47D breast): 2310 nM
- TGI (T-47D breast): 13 µM

SMILES: O=c1c2ccccc2nc2ccc3c(Cl)[nH][nH]c3c12
- TGI (786-0 renal): > 100 µM
- TGI (CCRF-CEM leukemia): > 100 µM
- TGI (HT29 colon): > 100 µM
- TGI (OVCAR-3 ovarian): > 100 µM
- TGI (SF-295 CNS): > 100 µM
- TGI (SK-MEL-5 melanoma): > 100 µM
- TGI (UACC-257 melanoma): > 92.7 µM

SMILES: O=C1NC(Cc2ccc(O)cc2)C(=O)NC1Cc1ccc(O)cc1 (configuration not stated)
- TGI (786-0 renal): > 100 µM
- TGI (CCRF-CEM leukemia): > 100 µM
- TGI (HT29 colon): > 100 µM
- TGI (MCF7 breast): > 100 µM
- TGI (NCI/ADR-RES ovarian): > 100 µM
- TGI (OVCAR-3 ovarian): > 100 µM
- TGI (SF-295 CNS): > 100 µM
- TGI (SK-MEL-5 melanoma): > 100 µM
- TGI (UACC-257 melanoma): > 100 µM

SMILES: CCC(=O)OC1CCn2c1nc1c2C(=O)C(C)=C(NC(C)=O)C1=N (configuration not stated)
- TGI (786-0 renal): 6.06 µM
- TGI (HT29 colon): 3.36 µM
- TGI (OVCAR-3 ovarian): 3.31 µM
- TGI (SF-295 CNS): 4.12 µM
- TGI (SK-MEL-5 melanoma): 2.55 µM
- TGI (UACC-257 melanoma): 2.5 µM

SMILES: CN(C)CC1CCC(CN(C)C)C(=O)C1=O (configuration not stated)
- TGI (786-0 renal): 29.7 µM
- TGI (CCRF-CEM leukemia): 4.51 µM
- TGI (HT29 colon): 16.5 µM
- TGI (MCF7 breast): 8.6 µM
- TGI (OVCAR-3 ovarian): 5.32 µM
- TGI (SF-295 CNS): 32.4 µM
- TGI (SK-MEL-5 melanoma): 30 µM
- TGI (T-47D breast): 5.36 µM
- TGI (UACC-257 melanoma): 6.44 µM

SMILES: O=C1C2C=CC(n3[nH]c(=O)n(Cc4ccccc4)c3=O)CC2C(=O)N1c1ccc(Br)cc1 (configuration not stated)
- TGI (786-0 renal): > 100 µM
- TGI (CCRF-CEM leukemia): > 100 µM
- TGI (HT29 colon): > 100 µM
- TGI (OVCAR-3 ovarian): > 100 µM
- TGI (SF-295 CNS): > 100 µM
- TGI (SK-MEL-5 melanoma): > 100 µM
- TGI (UACC-257 melanoma): > 100 µM

SMILES: COc1ccc(C)cc(=O)c1O
- TGI (786-0 renal): > 100 µM
- TGI (CCRF-CEM leukemia): 72.5 µM
- TGI (HT29 colon): > 100 µM
- TGI (OVCAR-3 ovarian): > 100 µM
- TGI (SF-295 CNS): > 100 µM
- TGI (SK-MEL-5 melanoma): > 100 µM
- TGI (UACC-257 melanoma): > 100 µM
